As usually defined, the EC50 is the concentration at which the effect is half-maximal. Lower therefore signals higher potency in that assay.

One assay addresses T1, Bcl-2-like protein 10 [11-204] (Homo sapiens, UniProt Q9HD36).
T1 construct: 11-204
T1 sequence (Q9HD36 whole entry): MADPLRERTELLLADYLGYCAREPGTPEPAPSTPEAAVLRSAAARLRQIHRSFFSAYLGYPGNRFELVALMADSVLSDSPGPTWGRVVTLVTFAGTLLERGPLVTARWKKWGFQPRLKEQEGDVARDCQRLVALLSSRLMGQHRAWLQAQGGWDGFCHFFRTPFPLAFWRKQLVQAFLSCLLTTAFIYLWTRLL
Nature of the assay: modulators of Bcl-B/Bim peptide interaction – biochemical, multiplexed, bead-based flow cytometry, human, dose response (AID 1327).
Details: not given
Background: Flow cytometry measures light scatter and fluorescence of single cells or particles in a stream.
Regarding `Cc1ccc(C=NNC(=O)CSc2nnc(-c3ccc(Cl)cc3)n2-c2ccccc2)o1` [SMR000218122], the EC50 turned out to be 9.23 µM.

`O=c1c2c(n3nnnc3n1Cc1ccccc1)-c1ccccc1CC21CCCC1` [MLS000030575] displayed an EC50 of 5.52 µM.

Still in this assay, the particulars now being: inactive by the depositor's call.
`Cc1cc(OCc2cn3cccnc3n2)ccc1Cl` [2-[(4-chloranyl-3-methyl-phenoxy)methyl]imidazo[1,2-a]pyrimidine] gave an EC50 of 17.3 µM.

The molecule `Cc1cc(C)cc(NS(=O)(=O)c2ccc3c(c2)c(=O)n(C)c(=O)n3C)c1` [MLS000521783] had an EC50 of 17.4 µM.

In turn, `CCOC(=O)c1nc(Nc2ccc(C(=O)OC)cc2)c2ccccc2n1` [ethyl 4-(4-methoxycarbonylanilino)quinazoline-2-carboxylate] gave an EC50 of 11.2 µM.

Consider `O=S1(=O)N=C(N(CCO)N=C/C=C/c2ccccc2)c2ccccc21`, for which a half-maximal response (EC50) required 11.7 µM. This EC50 and that of the molecule before are within 1.5-fold of each other.

Molecule `COc1ccc(CCNC(=O)c2ccc3nc(-c4ccco4)c(-c4ccco4)nc3c2)cc1OC` [N-[2-(3,4-dimethoxyphenyl)ethyl]-2,3-di-2-furylquinoxaline-6-carboxamide] showed an EC50 of 52.4 µM.

With `CN1CCN(C2=C(Cl)C(=O)C(c3cnc(N4CCCCC4)s3)=C(Cl)C2=O)CC1`, the EC50 worked out at 3.42 µM.

On to `O=S1(=O)N=C(N(CCO)N=Cc2ccccc2)c2ccccc21` [2-[(benzylideneamino)-(1,1-dioxo-1,2-benzothiazol-3-yl)amino]ethanol], for which the midpoint of the response, the EC50, lay at 12.8 µM.

Take `c1ccc(Nc2cccc(Nc3ccccc3)n2)cc1` [N,N'-diphenyl-2,6-pyridinediamine]: the EC50 worked out at 7.82 µM.

For the molecule `Cc1cc(-c2nnc3n2N=C(c2ccc(-c4ccccc4)cc2)CS3)[nH]n1` [MLS000082991], the EC50 is 36.4 µM.

`COc1ccc(C)cc1-n1c(=O)c2ccccc2c2ccccc2c1=O` [MLS000682999] came in with an EC50 of 15.6 µM.

`CN(N=C/C=C/c1ccccc1)C1=NS(=O)(=O)c2ccccc21` [(1E,2E)-3-phenylacrylaldehyde (1,1-dioxido-1,2-benzisothiazol-3-yl)(methyl)hydrazone] registered an EC50 of 1.94 µM. Against the preceding molecule, the EC50 is about 8-fold lower.

In turn, `Cc1cc2n(c1)CCn1c(C)ccc1-2` [MLS000104384] came in with an EC50 of 11.8 µM.

Values taken from BindingDB's records for doi:10.7270/Q2GH9GBT (Nmmlsc, 2008).
